Earlier results as cited in patent US20110086911A1, “NOVEL BISMUTH(III) NSAID COMPOUNDS AND METHODS FOR THEIR USE” (Monash University, priority 2009, published 2011).

System: H. pylori strains B128, 251 and 26695
Details: comparison values for substances not listed among those tested

Row | Molecule | MIC value [mg/L]
1 | CNC(=C[N+](=O)[O-])NCCSCc1ccc(CN(C)C)o1.O=C([O-])CC(O)(CC(=O)[O-])C(=O)[O-].[Bi+3] [RBC, ranitidine bismuth citrate] | 8
2 | colloidal bismuth subcitrate [CBS] | ≥ 12.5
